Test results taken from US7919101B2 (priority 2008, dated 2011).
Values joined by “and” are separate entries in the source; they are usually repeats but may differ in a detail not shown here. Equal values may be shown once. Read-outs that look alike come from different tables or passages of the source. Residues, ends and D or L forms follow the SMILES beside them.

Columns and labels:
[1] = tested on: HIV-1-mediated cell-cell fusion (H9/HIV-1IIIB cells and MT-2 cells); test: HIV-1-mediated cell-cell fusion, dye transfer assay; assay type: cell-based
Experimental: The inhibitory activities of the compounds on HIV-induced cell-cell fusion were determined using a dye transfer assay (Jiang S et al. Proc SPIE 3926:212-219, 2000). Briefly, H9/HIV-1IIIB cells were pre-labeled with a fluorescent dye, Calcein AM (Molecular Probes, Inc.), and incubated with a testing compound at a graded concentration at 37° C. for 30 min in a 96-well cell culture plate. Then the CD4^+ MT-2 cells were added to the H9/HIV-1IIIB cells at a ratio of 10:1, followed by incubation at 37° C. for 2 hrs. The fused and unfused calcein-labeled HIV-1-infected cells were counted under an inverted fluorescence microscope with an eyepiece micrometer disc.

[2] = target: gp41 six-helix bundle formation between N46 and C34-biotin (Human immunodeficiency virus type 1 group M subtype B, UniProt P04578); assay type: biochemical, HIV-1; conditions: triple combination of T-20, T-1249 and T-1144
Experimental: 6. Enzyme-linked Immunosorbent Assay (ELISA). […] The plate was then incubated for 30 min and added to horseradish peroxidase (HRP) labeled with streptavidin (SA-HRP) (ZYMED Laboratories). The plate was washed with the washing buffer (PBS containing 0.01% Tween 20) for 6 times to remove any unbound peptide. The substrate TMB was added sequentially. Absorbance at 450 nm (A450) was measured using an ELISA reader.

[3] = cited from earlier work
[4] = tested on: viruses that are resistant to T-20; conditions: viruses resistant to T-20; cited from earlier work
[5] = in combination T-20:T-1144 (4:1)
[6] = in combination T-20:T-1144 (4:1) vs alone
[7] = in combination T-20:T-1249:T-1144 (4:1:1)
[8] = in combination T-20:T-1249:T-1144 (4:1:1) vs alone
[9] = in combination T-20:T-1249:T-1144 (4:1:1), read-out: EC90 Concentration Mix
[10] = in combination T-1144:C34 (2:1)
[11] = in combination T-1144:C34 (2:1) vs alone
[12] = in combination T-1249:T-1144 (1:1)
[13] = in combination T-1249:T-1144 (1:1) vs alone
[14] = peptide tested alone, read-out: EC50 Concentration Alone
[15] = peptide tested alone, read-out: EC90 Concentration Alone
[16] = in combination T-20:C34 (8:1) vs alone
[17] = in combination T-20:Sifuvirtide (4:1)
[18] = in combination T-20:Sifuvirtide (4:1) vs alone
[19] = in combination T-20:T-1249 (4:1)
[20] = in combination T-20:T-1249 (4:1) vs alone
[21] = in combination T-20:T-1249:C34 (8:2:1)
[22] = in combination T-20:T-1249:C34 (8:2:1) vs alone
[23] = peptide tested alone, listed as T20

Chain of gp41 six-helix bundle formation between N46 and C34-biotin (P04578 536-581): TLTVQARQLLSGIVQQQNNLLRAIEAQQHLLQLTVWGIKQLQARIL

CC[C@H](C)[C@H](NC(=O)[C@H](C)NC(=O)[C@H](CCCNC(=N)N)NC(=O)[C@H](CC(=O)O)NC(=O)[C@H](Cc1c[nH]c2ccccc12)NC(=O)[C@H](C)NC(=O)[C@H](CCC(=O)O)NC(=O)[C@H](Cc1c[nH]c2ccccc12)NC(=O)[C@@H](NC(=O)[C@@H](NC(C)=O)[C@@H](C)O)[C@@H](C)O)C(=O)N[C@@H](C)C(=O)N[C@@H](CCC(=O)O)C(=O)N[C@@H](Cc1ccc(O)cc1)C(=O)N[C@@H](C)C(=O)N[C@@H](C)C(=O)N[C@@H](CCCNC(=N)N)C(=O)N[C@H](C(=O)N[C@@H](CCC(=O)O)C(=O)N[C@@H](C)C(=O)N[C@@H](CC(C)C)C(=O)N[C@@H](CC(C)C)C(=O)N[C@@H](CCCNC(=N)N)C(=O)N[C@@H](C)C(=O)N[C@@H](CC(C)C)C(=O)N[C@@H](CCC(N)=O)C(=O)N[C@@H](CCC(=O)O)C(=O)N[C@@H](CCC(N)=O)C(=O)N[C@@H](CCC(N)=O)C(=O)N[C@@H](CCC(=O)O)C(=O)N[C@@H](CCCCN)C(=O)N[C@@H](CC(N)=O)C(=O)N[C@@H](CCC(=O)O)C(=O)N[C@@H](C)C(=O)N[C@@H](C)C(=O)N[C@@H](CC(C)C)C(=O)N[C@@H](CCCNC(=N)N)C(=O)N[C@@H](CCC(=O)O)C(=O)N[C@@H](CC(C)C)C(N)=O)[C@@H](C)CC [T-1144] (Ac-TTWEAWDRAIAEYAARIEALLRALQEQQEKNEAALREL-NH2; N-terminus and C-terminus assumed)
EC70 Concentration Mix [1, 5]: 0.008 nM | EC95 Concentration Mix [1, 5]: 0.013 nM | Potency increase at EC50 [1, 6]: 435.500 fold | Potency increase at EC70 [1, 6]: 444.250 fold | Potency increase at EC90 [1, 6]: > 438 fold and 439.455 fold | Potency increase at EC95 [1, 6]: 458.462 fold | EC70 Concentration Mix [1, 7]: 0.005 nM | EC95 Concentration Mix [1, 7]: 0.007 nM | Potency increase at EC50 [1, 8]: 653.250 fold | Potency increase at EC70 [1, 8]: 710.800 fold | Potency increase at EC90 [1, 8]: 805.667 fold | Potency increase at EC95 [1, 8]: 851.429 fold | EC90 [1, 9]: 0.006 nM | EC70 Concentration Mix [1, 10]: 0.408 nM | EC95 Concentration Mix [1, 10]: 0.659 nM | Potency increase at EC50 [1, 11]: 8.511 fold | Potency increase at EC70 [1, 11]: 8.711 fold | Potency increase at EC95 [1, 11]: 9.044 fold | EC90 ([1]; in combination T-1144:C34 (2:1), read-out: EC90 Concentration Mix): 0.543 nM | EC70 Concentration Mix [1, 12]: 0.232 nM | EC95 Concentration Mix [1, 12]: 0.374 nM | Potency increase at EC50 [1, 13]: 15.017 fold | Potency increase at EC70 [1, 13]: 15.319 fold | Potency increase at EC90 [1, 13]: 15.695 fold | Potency increase at EC95 [1, 13]: 15.936 fold | EC90 ([1]; in combination T-1249:T-1144 (1:1), read-out: EC90 Concentration Mix): 0.308 nM | EC70 Concentration Alone ([1]; peptide tested alone): 3.554 nM | EC95 Concentration Alone ([1]; peptide tested alone): 5.960 nM | EC50 [1, 14]: 2.61 nM | EC90 [1, 15]: 4.83 nM | Dose reduction, six-helix bundle formation [2]: ~2 fold | pharmacokinetic properties improved ([3]; in vivo): up to 100 fold | activity relative to T-20 [4]: thousands fold more active than T-20

enfuvirtide
EC70 Concentration Mix ([1]; in combination T-20:C34 (8:1)): 0.427 nM | EC95 Concentration Mix ([1]; in combination T-20:C34 (8:1)): 0.682 nM | Potency increase at EC50 [1, 16]: 61.108 fold | Potency increase at EC70 [1, 16]: 62.834 fold | Potency increase at EC95 [1, 16]: 65.594 fold | EC50 ([1]; in combination T-20:C34 (8:1), read-out: EC50 Concentration Mix): 0.324 nM | EC90 ([1]; in combination T-20:C34 (8:1), read-out: EC90 Concentration Mix): 0.564 nM | EC70 Concentration Mix [1, 17]: 2.356 nM | EC95 Concentration Mix [1, 17]: 3.537 nM | Potency increase at EC50 [1, 18]: 8.928 fold | Potency increase at EC70 [1, 18]: 8.863 fold | Potency increase at EC95 [1, 18]: 8.757 fold | EC50 ([1]; in combination T-20:Sifuvirtide (4:1), read-out: EC50 Concentration Mix): 1.85 nM | EC90 ([1]; in combination T-20:Sifuvirtide (4:1), read-out: EC90 Concentration Mix): 3 nM | EC70 Concentration Mix [1, 5]: 0.033 nM | EC95 Concentration Mix [1, 5]: 0.052 nM | Potency increase at EC50 [1, 6]: 791.960 fold | Potency increase at EC70 [1, 6]: 813.030 fold | Potency increase at EC95 [1, 6]: 860.288 fold | EC50 ([1]; in combination T-20:T-1144 (4:1), read-out: EC50 Concentration Mix): 0.025 nM | EC90 ([1]; in combination T-20:T-1144 (4:1), read-out: EC90 Concentration Mix): 0.043 nM | EC70 Concentration Mix [1, 19]: 0.051 nM | EC95 Concentration Mix [1, 19]: 0.082 nM | Potency increase at EC50 [1, 20]: 521.026 fold | Potency increase at EC70 [1, 20]: 526.078 fold | Potency increase at EC95 [1, 20]: 545.549 fold | EC50 ([1]; in combination T-20:T-1249 (4:1), read-out: EC50 Concentration Mix): 0.038 nM | EC90 ([1]; in combination T-20:T-1249 (4:1), read-out: EC90 Concentration Mix): 0.068 nM | EC70 Concentration Mix [1, 21]: 0.070 nM | EC95 Concentration Mix [1, 21]: 0.108 nM | Potency increase at EC50 [1, 22]: 366.648 fold | Potency increase at EC70 [1, 22]: 383.286 fold | Potency increase at EC90 [1, 22]: more than 399 fold | Potency increase at EC95 [1, 22]: 414.213 fold | Potency increase at EC90 ([1]; in combination T-20:T-1249:C34 (8:2:1) vs alone, listed as T20): 399.648 fold | EC50 ([1]; in combination T-20:T-1249:C34 (8:2:1), read-out: EC50 Concentration Mix): 0.054 nM | EC90 ([1]; in combination T-20:T-1249:C34 (8:2:1), read-out: EC90 Concentration Mix): 0.091 nM | EC70 Concentration Mix [1, 7]: 0.019 nM | EC95 Concentration Mix [1, 7]: 0.029 nM | Potency increase at EC50 [1, 8]: 1319.933 fold | Potency increase at EC70 [1, 8]: 1412.105 fold | Potency increase at EC95 [1, 8]: 1542.586 fold | EC50 ([1]; in combination T-20:T-1249:T-1144 (4:1:1), read-out: EC50 Concentration Mix): 0.015 nM | EC90 [1, 9]: 0.025 nM | EC70 Concentration Alone ([1]; peptide tested alone): 26.830 nM and 20.882 nM | EC95 Concentration Alone ([1]; peptide tested alone): 44.735 nM and 30.973 nM | EC70 Concentration Alone [1, 23]: 26.830 nM | EC95 Concentration Alone [1, 23]: 44.735 nM | EC50 [1, 14]: 19.8 nM and 16.5 nM | EC90 [1, 15]: 36.4 nM and 26.4 nM | half-life in vivo ([3]; in the blood): about 2 hours
